Experimental data reported in US6756526B2, “Drought tolerant plants and methods of increasing drought tolerance in plants” (Kansas State University Research Foundation, priority 2001, dated 2004).
“Also recorded” adds a separate entry of the source.

Experiments:
[1] = tested on: PLDα-depleted (antisense) Arabidopsis leaves; assay: Stomatal closure measured as diffusion resistance (steady state porometer) in detached leaves incubated with ABA; format: in vivo, Arabidopsis thaliana; conditions: PLDα-suppressed leaves
Method: (§1) The depletion of PLDα in guard cells provides a means of assessing the role of PLD in stomatal movement. Stomatal closure was determined by measuring diffusion resistance using a steady-state porometer. Briefly, detached Arabidopsis leaves were floated with the abaxial side downward in a solution containing 5 mM MES-KOH (pH 6.1), 22 mM KCl, and 1 mM CaCl2 for 1 hour under the same light conditions used for growing plants. Leaves then were incubated without or with ABA at indicated concentrations. ABA was made as a 10 mM stock solution in 5% dimethyl sulfoxide (DMSO), and the same amount of DMSO (0.005%) was also added to the control solution in all treatments. Stomatal aperture of detached leaves was measured as diffusion resistance with a steady state porometer using the method of Thimann and S. O. Satler, Relation Between Leaf Senescence and Stomatal Closure: Senescence in Light, 76 Proc. Natl. Acad. Sci. USA, 2295-2298 (1979). For tobacco plants, leaf diffusion resistance was also measured in leaves attached to approximately 2-month-old plants following foliar spraying of ABA at indicated concentrations. Changes in diffusion resistance in response to ABA in both detached and intact leaves were monitored at indicated time intervals. Before drought treatment was imposed, Arabidopsis plants were grown in a greenhouse for 6-8 weeks and watered regularly. Soil water content in each pot was adjusted to approximately the same level before drought treatment. Plants were subjected to drought by withholding irrigation and the soil surface in each pot was covered with plastic wraps to minimize evaporation. Soil moisture in the 0-20 cm soil layer was monitored during drought using a time domain reflectometer. When ABA (10 μM) was sprayed on plants in some treatments, control groups of plants were sprayed with water in the same amount as for the ABA treatment. Leaves were collected at various times of drought treatment, and leaf water potential (ψw) was measured with a thermocouple psychrometer.
(§2) Detached Arabidopsis leaves were floated with the abaxial side downward in a solution containing 5 mM MES-KOH (pH 6.1), 22 mM KCl, and 1 mM CaCl2 for 1 hour under the same light conditions used for growing plants. Leaves then were incubated without or with ABA at indicated concentrations. ABA was made as a 10 mM stock solution in 5% dimethyl sulfoxide (DMSO), and the same amount of DMSO (0.005%) was also added to the control solution in all treatments. Stomatal aperture was measured as diffusion resistance with a steady state porometer (Li-COR 1600, Lincoln, Nebr.). The porometer was set for aperture of 0.5 cm^2, pressure of 100 pa, and relative humidity of 30%. Changes in diffusion resistance were monitored on plants at indicated time intervals.

[2] = tested on: wild-type Arabidopsis leaves; assay: as above; format: in vivo, Arabidopsis thaliana
Method: as §1, §2

[3] = tested on: PLDα-deficient Arabidopsis plants; assay: Progressive drought by withholding irrigation, with ABA spray; format: in vivo, Arabidopsis thaliana; conditions: ABA 10 μM sprayed once a day, PLDα-deficient plants under drought
Method: as §1, with “Before drought treatment was imposed, Arabidopsis plants were grown in a greenhouse for 6-8 weeks and watered regularly. Soil water content in each pot was adjusted to approximately the same level before drought treatment. Plants were subjected to drought by withholding irrigation and the soil surface in each pot was covered with plastic wraps to minimize evaporation.” left out, “When ABA (10 μM) was sprayed on plants in some treatments, control groups of plants were sprayed with water in the same amount as for the ABA treatment. Leaves were collected at various times of drought treatment, and leaf water potential (ψw) was measured with a thermocouple psychrometer.” left out

[4] = tested on: wild-type Arabidopsis plants; assay: as above; format: in vivo, Arabidopsis thaliana; conditions: ABA 10 μM sprayed once a day, wild-type plants under drought
Method: as §1, with “Before drought treatment was imposed, Arabidopsis plants were grown in a greenhouse for 6-8 weeks and watered regularly. Soil water content in each pot was adjusted to approximately the same level before drought treatment. Plants were subjected to drought by withholding irrigation and the soil surface in each pot was covered with plastic wraps to minimize evaporation.” left out, “When ABA (10 μM) was sprayed on plants in some treatments, control groups of plants were sprayed with water in the same amount as for the ABA treatment. Leaves were collected at various times of drought treatment, and leaf water potential (ψw) was measured with a thermocouple psychrometer.” left out

[5] = tested on: control tobacco plants (empty vector); assay: Leaf diffusion resistance measured directly on plants after foliar ABA spray; format: in vivo, Nicotiana tabacum; conditions: 2.5 and 5 μM ABA sprayed, 20 minutes after application, relative to plants sprayed with water
Method: as §1, with “Before drought treatment was imposed, Arabidopsis plants were grown in a greenhouse for 6-8 weeks and watered regularly. Soil water content in each pot was adjusted to approximately the same level before drought treatment. Plants were subjected to drought by withholding irrigation and the soil surface in each pot was covered with plastic wraps to minimize evaporation.” left out, “When ABA (10 μM) was sprayed on plants in some treatments, control groups of plants were sprayed with water in the same amount as for the ABA treatment. Leaves were collected at various times of drought treatment, and leaf water potential (ψw) was measured with a thermocouple psychrometer.” left out

PLD = conditions: tissues or guard cells treated with ABA; cited from earlier work
[6] = tested on: protoplasts of barley aleurone and Vicia faba guard cells; conditions: cited from earlier work
guard cell protoplasts = conditions: PA applied to guard cell protoplasts; cited from earlier work

| Molecule | effect on stomatal closure ([1]; 2 μM ABA) | ABA-induced increase in diffusion resistance, relative to that observed in wild-type leaves ([1]; 10 μM ABA) | ABA concentration at which diffusion resistance reached a plateau ([1]; 0.5-50 μM ABA tested, 20 minutes) [µM] | effect on stomatal closure ([2]; 2 μM ABA, wild-type leaves) | increase in diffusion resistance (stomatal closure) ([2]; 10 μM ABA, detached wild-type leaves) | persistence of the ABA effect on diffusion resistance ([2]; 10 μM ABA, wild-type) | effect on water loss and drought resistance [3] | effect on drought resistance (leaf turgidity, leaf water potential, soil water content) [4] | increase in leaf diffusion resistance [5] | PLD activity (and gene expression) after ABA (PLD) | effect of PA addition compared with ABA [6] | ionic efflux (guard cell protoplasts) |
| --- | --- | --- | --- | --- | --- | --- | --- | --- | --- | --- | --- | --- |
| CC1=CC(=O)CC(C)(C)[C@@]1(O)/C=C/C(C)=C\C(=O)O [ABA, abscisic acid] | no effect | approximately 50% | > 50 | stimulated stomatal closure | approximately twofold | more than 30 minutes | no detectable effect | enhanced resistance to drought; also recorded: improves this drought resistance | about 30% | increased; also recorded: increases PLD activity |  |  |
| phosphatidic acid [PA] |  |  |  |  |  |  |  |  |  |  | partially mimicked the effect of ABA | increase in ionic efflux |
